Source: ChEMBL document CHEMBL2390896, “Synthesis, enzymatic stability and in vitro cytostatic effect of Daunorubicin-GnRH-III derivative dimers” (Bioorg Med Chem Lett, 2013)

Tests used:
[1] = Prodrug conversion in rat liver lysosomal homogenate assessed as H-Lys(Dau=Aoa-Cys)-OH formation at 0.1 ug/uL after 24 hrs by LC-MS analysis; type: ADME, tissue-based
MCF7 = assay: Cytostatic activity against human MCF7 cells after 72 hrs by MTT assay; type: functional, cell-based; details: MCF7, 72 h
[2] = Proteolytic stability in Tris-HCl/CaCl2 buffer at pH 7.8 in presence of alpha-chymotrypsin assessed as compound degradation at 0.1 ug/uL after 6 hrs by mass spectrometry; type: ADME; details: pH 7.8, 6 h
[3] = Proteolytic stability in Tris-HCl/CaCl2 buffer at pH 7.8 in presence of alpha-chymotrypsin assessed as intact parent compound at 0.1 ug/uL measured after 24 hrs by mass spectrometry; type: ADME; details: pH 7.8, 24 h
[4] = Proteolytic stability in Tris-HCl/CaCl2 buffer at pH 7.8 in presence of alpha-chymotrypsin assessed as cleavage of compound at -3Trp-4Xxx- in second arm of dimer at 0.1 ug/uL after 24 hrs by mass spectrometry; type: ADME; details: pH 7.8, 24 h
[5] = Proteolytic stability in Tris-HCl/CaCl2 buffer at pH 7.8 in presence of alpha-chymotrypsin assessed as cleavage of compound at -3Trp-4Xxx- in second arm of dimer at 0.1 ug/uL after 4 hrs by mass spectrometry; type: ADME; details: pH 7.8, 4 h
[6] = Proteolytic stability in Tris-HCl/CaCl2 buffer at pH 7.8 in presence of alpha-chymotrypsin assessed as cleavage of compound at -3Trp-4Xxx- in one arm of dimer at 0.1 ug/uL measured after 1 hr by mass spectrometry; type: ADME; details: pH 7.8, 1 h
[7] = Proteolytic stability in 0.1 % formic acid at pH 1.8 in presence of pepsin after 24 hrs by mass spectrometry; type: ADME; details: isolated protein, pH 1.8, 24 h
[8] = Proteolytic stability in NH4HCO3 buffer at pH 8.0 in presence of trypsin at 0.1 ug/uL after 24 hrs by mass spectrometry; type: ADME; details: isolated protein, pH 8, 24 h
[9] = Prodrug conversion in rat liver lysosomal homogenate assessed as free daunorubicin at 0.1 ug/uL after 24 hrs by LC-MS analysis; type: ADME, tissue-based
[10] = Chemical stability of the compound in aqueous solution after 24 hrs by LC-MS analysis; type: physicochemical; details: buffer
[11] = Prodrug conversion in rat liver lysosomal homogenate assessed as {[H-Lys(Dau=Aoa-Cys)-OH] [H-Lys(Dau=Aoa-Cys)P-OH]} formation at 0.1 ug/uL after 24 hrs by LC-MS analysis; type: ADME, tissue-based
Serum = assay: Metabolic stability in human serum at 10 uM after 24 hrs by LC-MS analysis; type: ADME, cell-free
[12] = Drug metabolism in rat liver lysosomal homogenate assessed as [H-Lys(Dau=Aoa-Cys)-OH]2 formation at 0.1 ug/uL after 24 hrs by LC-MS analysis; type: ADME, tissue-based; details: tissue homogenate

Structure (SMILES)	Drug metabolism [1]	IC50 (MCF7) [µM]	Stability [2]	Stability [3]	Stability [4]	Stability [5]	Stability [6]	Stability [7]	Stability [8]	Drug metabolism [9]	Stability [10]	Drug metabolism [11]	Stability (Serum)	Drug metabolism [12]
COc1cccc2c1C(=O)c1c(O)c3c(c(O)c1C2=O)C[C@@](O)(/C(C)=N/OCC(=O)NCCCC[C@H](NC(=O)[C@H](Cc1c[nH]c2ccccc12)NC(=O)[C@H](CC(=O)O)NC(=O)[C@H](Cc1cnc[nH]1)NC(=O)[C@H](CO)N(C)C(=O)[C@H](Cc1c[nH]c2ccccc12)NC(=O)[C@H](Cc1cnc[nH]1)NC(=O)[C@@H]1CCC(=O)N1)C(=O)N1CCC[C@H]1C(=O)NCC(N)=O)C[C@@H]3O[C@H]1C[C@H](N)[C@H](O)[C@H](C)O1	Active	10.6	–	–	–	–	–	–	–	–	–	–	–	–
COc1cccc2c1C(=O)c1c(O)c3c(c(O)c1C2=O)C[C@@](O)(/C(C)=N/OCC(=O)N[C@@H](CSSC[C@H](NC(=O)CO/N=C(\C)[C@]1(O)Cc2c(O)c4c(c(O)c2[C@@H](O[C@H]2C[C@H](N)[C@H](O)[C@H](C)O2)C1)C(=O)c1c(OC)cccc1C4=O)C(=O)NCCCC[C@H](NC(=O)[C@H](Cc1c[nH]c2ccccc12)NC(=O)[C@H](CC(=O)O)NC(=O)[C@H](Cc1cnc[nH]1)NC(=O)[C@H](CO)NC(=O)[C@H](Cc1c[nH]c2ccccc12)NC(=O)[C@H](Cc1cnc[nH]1)NC(=O)[C@@H]1CCC(=O)N1)C(=O)N1CCC[C@H]1C(=O)NCC(N)=O)C(=O)NCCCC[C@H](NC(=O)[C@H](Cc1c[nH]c2ccccc12)NC(=O)[C@H](CC(=O)O)NC(=O)[C@H](Cc1cnc[nH]1)NC(=O)[C@H](CO)NC(=O)[C@H](Cc1c[nH]c2ccccc12)NC(=O)[C@H](Cc1cnc[nH]1)NC(=O)[C@@H]1CCC(=O)N1)C(=O)N1CCC[C@H]1C(=O)NCC(N)=O)C[C@@H]3O[C@H]1C[C@H](N)[C@H](O)[C@H](C)O1	–	4.1	Unstable	Stable	Stable	Stable	Unstable	Stable	Stable	Not Active	Stable	Active	Stable	–
COc1cccc2c1C(=O)c1c(O)c3c(c(O)c1C2=O)C[C@@](O)(/C(C)=N/OCC(=O)N[C@@H](CSSC[C@H](NC(=O)CO/N=C(\C)[C@]1(O)Cc2c(O)c4c(c(O)c2[C@@H](O[C@H]2C[C@H](N)[C@H](O)[C@H](C)O2)C1)C(=O)c1c(OC)cccc1C4=O)C(=O)NCCCC[C@H](NC(=O)[C@H](Cc1c[nH]c2ccccc12)NC(=O)[C@H](CC(=O)O)NC(=O)[C@H](Cc1cnc[nH]1)NC(=O)[C@H](CO)N(C)C(=O)[C@H](Cc1c[nH]c2ccccc12)NC(=O)[C@H](Cc1cnc[nH]1)NC(=O)[C@@H]1CCC(=O)N1)C(=O)N1CCC[C@H]1C(=O)NCC(N)=O)C(=O)NCCCC[C@H](NC(=O)[C@H](Cc1c[nH]c2ccccc12)NC(=O)[C@H](CC(=O)O)NC(=O)[C@H](Cc1cnc[nH]1)NC(=O)[C@H](CO)N(C)C(=O)[C@H](Cc1c[nH]c2ccccc12)NC(=O)[C@H](Cc1cnc[nH]1)NC(=O)[C@@H]1CCC(=O)N1)C(=O)N1CCC[C@H]1C(=O)NCC(N)=O)C[C@@H]3O[C@H]1C[C@H](N)[C@H](O)[C@H](C)O1	–	6.2	Unstable	Stable	Stable	Stable	Unstable	Stable	Stable	–	Stable	–	Stable	Active
